According to article PMC8264504, “Identification of Koumine as a Translocator Protein 18 kDa Positive Allosteric Modulator for the Treatment of Inflammatory and Neuropathic Pain” (Frontiers in Pharmacology, 2021):
Where two headings read alike, the source gives them in different places.

Experiments:
[1] = system: formalin-induced inflammatory pain model; assay: Formalin test; assay type: in vivo, mice; settings: for phase one nociceptive response: given alone, s.c.
Description: The formalin test was assessed as described by Dubuisson and Dennis ([Dubuisson and Dennis, 1977]) with minor modifications. Briefly, mice were allowed to acclimate for at least 30 min in the transparent plastic box before formalin injection. Each animal was injected with 10 μl of 5% formalin into the dorsal surface of the right hindpaw. Mice were then observed at 0–5 min (phase one) and at 11–60 min (phase two) after formalin, and the amount of time spent licking or biting the injected paw was recorded as the nociceptive response. Ro5-4864 or vehicle (5% DMSO) was administered s. c. 30 min prior to the formalin injection, and koumine was administered s. c. 40 min before formalin injection. To determine whether koumine potentiated the anti-inflammatory pain effects of Ro5-4864, koumine or its vehicle was injected 10 min before Ro5-4864 injection. Ro5-4864 was dissolved in DMSO and diluted in sterile physiological saline, and the final concentration of DMSO was 5%. Koumine was dissolved in sterile physiological saline directly. Animals were randomized for treatment and behavioral test were performed in a blinded manner.

[2] = target: T1, mouse TSPO recombinant protein (TSPO proteoliposomes) (Mus musculus, UniProt P50637); assay: SPR single-cycle kinetics on TSPO proteoliposomes; assay type: binding
T1 construct: His tag; made in house; host or cells: Escherichia coli BL21(DE3) pLysS, pET15b vector
Description: Cells of the BL21(DE3) pLysS Escherichia coli strain were transformed with the pET15b vector, from which the expression of mouse TSPO recombinant protein was induced by 1 mM isopropyl-1-thiol-β-D-galactopyranoside as previously described ([Robert and Lacapère, 2010]; [Senicourt et al., 2017]). Cells were harvested and resuspended in lysis buffer (150 mM NaCl and 50 mM HEPES-Na, pH 7.8) with the addition of 1 mg/ml lysozyme and sonicated thoroughly. The lysate was centrifuged at 15,000 g at 4°C for 20 min to pellet the insoluble inclusion bodies. The final pellet of inclusion bodies was solubilized in binding buffer (150 mM NaCl, 50 mM HEPES-Na, 1% SDS (wt/vol), pH 7.8) and was purified by the Ni-NTA gravity flow column.
Proteoliposomes composed of DMPC/DMPE (9:1) and TSPO in a 5:1 (wt/wt) ratio were prepared using a previously described method ([Ostuni et al., 2010]). Liposomes composed of DMPC/DMPE (9:1) were prepared as published previously ([Hatty et al., 2014]). A few milligrams of DMPC and DMPE were weighed into a round-bottom glass flask, and chloroform and methanol were added to dissolve them. A thin lipid film was prepared by a rotary evaporator and dried under vacuum for at least 3 h to remove all traces of chloroform and methanol. The dry lipid film was resuspended in PBS buffer (10 mM phosphate buffer, 2.7 mM KCl, 137 mM NaCl) to a concentration of 1 mg/ml, hydrated for 2 h at 45–55°C, and finally sonicated to produce small unilamellar vesicles. The suspension of small unilamellar vesicles was then kept at 45°C for use on the same day. The sizes of proteoliposomes and liposomes were determined by dynamic light scattering using Nicomp 380 Z3000 instrument (Parficle Sizing Systems, America).
SPR analyses were performed at 25°C with a Biacore T200 instrument. For proteoliposomes and liposomes (reference), they were immobilized on a series S L1 sensor chips. It is possible that the repeated regeneration steps in the multicycle kinetics process impairs the activity of TSPO proteoliposomes, thus we were unable to use multicycle kinetics to effectively determine the affinity of TSPO and its ligands. Therefore, the single cycle kinetics, which assumes to be as robust as the classical multicycle kinetics for measuring affinity, was used. Kinetic rate constants for the various analytes were determined using single cycle protocols where five serial 2-fold dilutions of the analytes were injected for 180 s without intervening regeneration, followed by a 300 s dissociation phase after the last injection. Interactions were measured at 30 μl/min. PBS, with addition of 1% DMSO (pH 7.4), was used as running buffer. […] For mouse TSPO in a lipid-free environment, affinity was measured according to established methods with minor modifications ([Zhang et al., 2015]). […]

Row | SMILES | phase two nociceptive response ([1]; Ro5-4864 alone 0.00016–0.5 mg/kg s.c. 30 min before formalin) | phase one nociceptive response [1] | Kd ([2]; SPR single-cycle kinetics, TSPO proteoliposomes on L1 chip, 25°C, Langmuir 1:1 fit, read-out: KD) [nM] | modulation of Ro5-4864-mediated analgesic effect, phase two ([1]; 0.4 mg/kg koumine s.c. 10 min before 0.00016–0.02 mg/kg Ro5-4864 s.c.) | modulation of Ro5-4864-mediated analgesic response, first phase ([1]; 0.4 mg/kg koumine s.c. 10 min before Ro5-4864) | significant inhibition of second-phase nociceptive response ([1]; koumine alone 0.08 and 0.4 mg/kg s.c.) | second-phase nociceptive response ([1]; koumine alone 2.0 and 10 mg/kg s.c. 40 min before formalin) | Kd [2] [nM]
1 | CN1C(=O)CN=C(c2ccc(Cl)cc2)c2cc(Cl)ccc21 [Ro5-4864, reference compound] | produced a dose-dependent antinociceptive effect | produced an antinociceptive effect | 2.06 ± 0.11 |  |  |  |  | 
2 | C=C[C@@]12CN(C)[C@H]3C[C@]14C(=Nc1ccccc14)[C@H]1C[C@@H]2[C@@H]3CO1 [koumine] |  | ineffective |  | significantly augment | did not increase | not | significantly inhibited the second-phase nociceptive response | 0.86 ± 0.07
